Key:
Ovarian tumor (ES-2) = settings: cited from earlier work
Melanoma (A375) = settings: cited from earlier work
Hepatic tumor (SNU423) = settings: cited from earlier work
Gastric tumor (257P) = settings: cited from earlier work
Breast tumor (R193) = settings: cited from earlier work
Hepatic tumor (SNU182) = settings: cited from earlier work
[1] = test system: Pancreatic tumor (181/85P); settings: cited from earlier work
Hepatic tumor (Hep3B) = settings: cited from earlier work
Breast tumor (SKBR3) = settings: cited from earlier work
Hs578T tumor cells = assay: Apoptotic killing of Hs578T tumor cells (morphological alternations by microscopy/Hoechst, death factor processing by immunoblot); format: cell-based
Description: We have established an in vitro cell model and examined herpes simplex virus-induced apoptotic killing of tumor cells. In the first series of studies, we used a standard inducer of apoptotic killing. A protein kinase inhibitor (i.e., staurosporine) was used. Mammary tumor cells (Hs578T) were cultured and treated with staurosporine (0.1-2 μM) for about 12-18 hours. […] (FIG. 1).
Using Hs578T cells, we next examined whether herpes simplex virus (HSV) can induce apoptotic killing in these tumor cells. Standard methods were used to prepare wild-type HSV-1 (i.e., wtHSV-1). (Blaho et al.: Herpes Simplex Virus: Propagation, Quantification, and Storage. Current Protocols in Microbiology. Wiley & Sons. 14:1-23, 2005). Hs578T cells were infected with wtHSV-1 and examined for tumor cell apoptotic killing. A range of wtHSV-1 concentration was used and we observed that one particle of wtHSV-1 was sufficient to induce apoptotic killing of a tumor cell. Apoptotic killing was evaluated at 24-hour post infection by monitoring morphological alternations and presence of death factor processing as detailed above.
INFECTION OF TUMOR CELLS WITH HSV MUTANTS: Approximately 1×10^6 cells (i.e., tumor cells) were exposed to 10 plaque forming units (PFU) per ml of ΔICP27 virus in 1 ml of 5% NBCS for 1 hour at 37° C. After this adsorption step, the medium was removed and discarded. 3 ml of fresh 5 NBCS was then added. […]
MICROSCOPIC ANALYSIS OF HSV INFECTED TUMOR CELLS: The morphology of HSV infected cells was analyzed by phase contrast and fluorescence microscopy using an Olympus IX70/IX-FLA inverted fluorescence microscope. […]
For visualization of chromatin condensation in live cells, […] Hoechst 33258 (Sigma) per ml was added to the medium and allowed to incubate at 37° C. for 30 min. The percentage (%) of nuclei containing condensed chromatin was determined by dividing the number of brightly stained, small (condensed) nuclei by the total number of nuclei (uncondensed plus condensed) in a particular (640) microscopic field. At least 100 nuclei were counted for each data point. […]

HEp-2 cells = assay: Apoptotic killing of HEp-2 tumor cells (morphological alternations and death factor processing); format: cell-based, human; settings: for apoptotic killing (morphological alternations and death factor processing): doxorubicin 10 μM, etoposide 125 μM, data not shown
Description: We also examined if a different type of herpes simplex virus (i.e., HSV-2) may induce apoptotic killing of tumor cells. Standard methods were used to prepare wild-type HSV-2 (i.e., wtHSV-2). (Blaho et al.: Herpes Simplex Virus: Propagation, Quantification, and Storage. Current Protocols in Microbiology. Wiley & Sons. 14:1-23, 2005). Tumor cells (human carcinoma HEp-2) were used and infected with wtHSV-2. […] In particular, wtHSV-2 caused both the morphological alternations and death factor processing (data not shown). Thus, infection of Hs578T and HEp-2 cells with wtHSV-1 and wtHSV-2, respectively, leads to substantial apoptotic killing of tumor cells.
We examined tumor cell killing by chemotherapeutic agents. In this study, HEp-2 cells were treated with varying amounts of doxorubicin and etoposide. Apoptotic killing was measured using the method detailed above. […] Thus, these tumor cells were sensitive to chemotherapeutic agents.
INFECTION OF TUMOR CELLS WITH HSV MUTANTS: Approximately 1×10^6 cells (i.e., tumor cells) were exposed to 10 plaque forming units (PFU) per ml of ΔICP27 virus in 1 ml of 5% NBCS for 1 hour at 37° C. After this adsorption step, the medium was removed and discarded. 3 ml of fresh 5 NBCS was then added. Cells were maintained at 37° C. for at least 18 hours.
MICROSCOPIC ANALYSIS OF HSV INFECTED TUMOR CELLS: The morphology of HSV infected cells was analyzed by phase contrast and fluorescence microscopy using an Olympus IX70/IX-FLA inverted fluorescence microscope. Images were acquired using a Sony DKC-5000 digital photo camera linked to a PowerMac workstation and processed through Adobe Photoshop.
For visualization of chromatin condensation in live cells, […] Hoechst 33258 (Sigma) per ml was added to the medium and allowed to incubate at 37° C. for 30 min. The percentage (%) of nuclei containing condensed chromatin was determined by dividing the number of brightly stained, small (condensed) nuclei by the total number of nuclei (uncondensed plus condensed) in a particular (640) microscopic field. At least 100 nuclei were counted for each data point. The percentage (%) of chromatin condensation is represented as the mean±SD of three independent experiments.
IMMUNOBLOT ANALYSIS OF HSV INFECTED TUMOR CELLS: Whole-cell protein extract was prepared using lysis buffer (50 mM Tris/HCl, pH 7.5, 150 mM NaCl, 1% Triton X-100,1% deoxycholate, 0.1% SDS) supplemented with 2 mM PMSF (freshly prepared stock), 1% Translysol, 0.1 mM L-1-chloro-3-(4-tosylamido)-4-phenyl-2-butanone, 0.01 mM L-1-chlor-3-(4-tosylamido)-7-amino-2-heptanon-hydrochloride. Protein concentrations were determined using a modified Bradford protein assay (Bio-Rad Laboratories). […]

MCF-7 = assay: Apoptotic killing of MCF-7 breast tumor cells; format: cell-based; settings: MCF-7 tumor cells

O=c1[nH]cc(F)c(=O)[nH]1 [5-Fluorouracil, 5-fluorouracil]
Resistant or Sensitive to Chemotherapeutic Agents (Ovarian tumor (ES-2)): Sensitive | Resistant or Sensitive to Chemotherapeutic Agents (Melanoma (A375)): Resistant | Resistant or Sensitive to Chemotherapeutic Agents (Hepatic tumor (SNU423)): Resistant | Resistant or Sensitive to Chemotherapeutic Agents (Gastric tumor (257P)): Resistant | Resistant or Sensitive to Chemotherapeutic Agents (Breast tumor (R193)): Sensitive | Resistant or Sensitive to Chemotherapeutic Agents (Hepatic tumor (SNU182)): Resistant | Resistant or Sensitive to Chemotherapeutic Agents [1]: Sensitive | Resistant or Sensitive to Chemotherapeutic Agents (Hepatic tumor (Hep3B)): Resistant | Resistant or Sensitive to Chemotherapeutic Agents (Breast tumor (SKBR3)): Sensitive

N.N.[Cl][Pt][Cl] [Cisplatin, cisplatin]
Resistant or Sensitive to Chemotherapeutic Agents (Ovarian tumor (ES-2)): Resistant | Resistant or Sensitive to Chemotherapeutic Agents (Melanoma (A375)): Resistant | Resistant or Sensitive to Chemotherapeutic Agents (Hepatic tumor (SNU423)): Resistant | Resistant or Sensitive to Chemotherapeutic Agents (Gastric tumor (257P)): Resistant | Resistant or Sensitive to Chemotherapeutic Agents (Breast tumor (R193)): Resistant | Resistant or Sensitive to Chemotherapeutic Agents (Hepatic tumor (SNU182)): Resistant | Resistant or Sensitive to Chemotherapeutic Agents [1]: Resistant | Resistant or Sensitive to Chemotherapeutic Agents (Hepatic tumor (Hep3B)): Resistant | Resistant or Sensitive to Chemotherapeutic Agents (Breast tumor (SKBR3)): Resistant

C[C@@H]1C[C@@H]([C@H](O)CC2CC(=O)NC(=O)C2)C(=O)[C@@H](C)C1 [Cycloheximide, cycloheximide]
apoptotic effects (Hs578T tumor cells; cycloheximide alone, data not shown): no apparent apoptotic effects

COc1cccc2c1C(=O)c1c(O)c3c(c(O)c1C2=O)C[C@@](O)(C(=O)CO)C[C@@H]3O[C@H]1C[C@H](N)[C@H](O)[C@H](C)O1 [Doxorubicin, doxorubicin]
Resistant or Sensitive to Chemotherapeutic Agents (Ovarian tumor (ES-2)): Resistant | Resistant or Sensitive to Chemotherapeutic Agents (Melanoma (A375)): Resistant | Resistant or Sensitive to Chemotherapeutic Agents (Hepatic tumor (SNU423)): Resistant | Resistant or Sensitive to Chemotherapeutic Agents (Gastric tumor (257P)): Resistant | Resistant or Sensitive to Chemotherapeutic Agents (Breast tumor (R193)): Resistant | Resistant or Sensitive to Chemotherapeutic Agents (Hepatic tumor (SNU182)): Resistant | Resistant or Sensitive to Chemotherapeutic Agents [1]: Resistant | sensitivity of tumor cells to chemotherapeutic agent (HEp-2 cells): sensitive | apoptotic killing (morphological alternations and death factor processing) (HEp-2 cells): induce morphological alternations and death factor processing | resistance of tumor cells to chemotherapeutic agent (drug-induced apoptosis) (MCF-7): resistant | Resistant or Sensitive to Chemotherapeutic Agents (Hepatic tumor (Hep3B)): Resistant | Resistant or Sensitive to Chemotherapeutic Agents (Breast tumor (SKBR3)): Resistant

COc1cc([C@@H]2c3cc4c(cc3[C@@H](O[C@@H]3O[C@@H]5CO[C@@H](C)O[C@H]5[C@H](O)[C@H]3O)[C@H]3COC(=O)[C@H]23)OCO4)cc(OC)c1O [Etoposide, etoposide]
Resistant or Sensitive to Chemotherapeutic Agents (Ovarian tumor (ES-2)): Resistant | Resistant or Sensitive to Chemotherapeutic Agents (Melanoma (A375)): Resistant | Resistant or Sensitive to Chemotherapeutic Agents (Hepatic tumor (SNU423)): Resistant | Resistant or Sensitive to Chemotherapeutic Agents (Gastric tumor (257P)): Resistant | Resistant or Sensitive to Chemotherapeutic Agents (Breast tumor (R193)): Resistant | Resistant or Sensitive to Chemotherapeutic Agents (Hepatic tumor (SNU182)): Resistant | Resistant or Sensitive to Chemotherapeutic Agents [1]: Resistant | sensitivity of tumor cells to chemotherapeutic agent (HEp-2 cells): sensitive | apoptotic killing (morphological alternations and death factor processing) (HEp-2 cells): induce morphological alternations and death factor processing | resistance of tumor cells to chemotherapeutic agent (drug-induced apoptosis) (MCF-7): resistant | Resistant or Sensitive to Chemotherapeutic Agents (Hepatic tumor (Hep3B)): Resistant | Resistant or Sensitive to Chemotherapeutic Agents (Breast tumor (SKBR3)): Resistant

CC(=O)O[C@H]1C(=O)[C@@]2(C)[C@H]([C@H](OC(=O)c3ccccc3)[C@]3(O)C[C@H](OC(=O)[C@H](O)[C@@H](NC(=O)c4ccccc4)c4ccccc4)C(C)=C1C3(C)C)[C@]1(OC(C)=O)CO[C@@H]1C[C@@H]2O [Paclitaxel, paclitaxel]
Resistant or Sensitive to Chemotherapeutic Agents (Ovarian tumor (ES-2)): Resistant | Resistant or Sensitive to Chemotherapeutic Agents (Melanoma (A375)): Sensitive | Resistant or Sensitive to Chemotherapeutic Agents (Hepatic tumor (SNU423)): Sensitive | Resistant or Sensitive to Chemotherapeutic Agents (Gastric tumor (257P)): Sensitive | Resistant or Sensitive to Chemotherapeutic Agents (Breast tumor (R193)): Sensitive | Resistant or Sensitive to Chemotherapeutic Agents (Hepatic tumor (SNU182)): Resistant | Resistant or Sensitive to Chemotherapeutic Agents [1]: Sensitive | Resistant or Sensitive to Chemotherapeutic Agents (Hepatic tumor (Hep3B)): Resistant | Resistant or Sensitive to Chemotherapeutic Agents (Breast tumor (SKBR3)): Sensitive

CN[C@@H]1C[C@H]2O[C@@](C)([C@@H]1OC)n1c3ccccc3c3c4c(c5c6ccccc6n2c5c31)C(=O)NC4 [Staurosporine, staurosporine]
Death Factor Processing Poly(ADP-ribose) Polymerase, Procaspase 3, and DNA Fragmentation Factor-45 (Hs578T tumor cells; immunoblot): drastic death factor processing | chromatin condensation (percentage of nuclei containing condensed chromatin) (Hs578T tumor cells; staurosporine 0.1-2 μM, about 12-18 hours, mean±SD of three independent experiments): 86±14%

— patent publication US20140308668A1, “Method of Determining Susceptibility of a Tumor Cell to a Chemotherapeutic Agent: Novel Use of Herpes SImplex Virus” (priority 2008, published 2014)
